# Laboratory results from US20150218534A1, “MODIFIED DNA POLYMERASE” (TOYOBO CO., LTD., priority 2012, published 2015).
# B1: Pfu Y7A/V93K: modified Pfu DNA polymerase with Y7A and V93K (protein, UniProt P61875 1-775, looked up, variant Y7A V93K)
# DNA polymerase: MILDVDAITEEGKPVIRLFKKENGKFKIEHDRTFRPYIYALLRDDSKIEEVKKITGERHGKIVRIVDVEKVEKKFLGKPITVWKLYLEHPQDKPTIREKVREHPAVVDIFEYDIPFAKRYLIDKGLIPMEGEEELKILAFDIETLYHEGEEFGKGPIIMISYADENEAKVITWKNIDLPYVEVVSSEREMIKRFLRIIREKDPDIIVTYNGDSFDFPYLAKRAEKLGIKLTIGRDGSEPKMQRIGDMTAVEVKGRIHFDLYHVITRTINLPTYTLEAVYEAIFGKPKEKVYADEIAKAWESGENLERVAKYSMEDAKATYELGKEFLPMEIQLSRLVGQPLWDVSRSSTGNLVEWFLLRKAYERNEVAPNKPSEEEYQRRLRESYTGGFVKEPEKGLWENIVYLDFRALYPSIIITHNVSPDTLNLEGCKNYDIAPQVGHKFCKDIPGFIPSLLGHLLEERQKIKTKMKETQDPIEKILLDYRQKAIKLLANSFYGYYGYAKARWYCKECAESVTAWGRKYIELVWKELEEKFGFKVLYIDTDGLYATIPGGESEEIKKKALEFVKYINSKLPGLLELEYEGFYKRGFFVTKKRYAVIDEEGKVITRGLEIVRRDWSEIAKETQARVLETILKHGDVEEAVRIVKEVIQKLANYEIPPEKLAIYEQITRPLHEYKAIGPHVAVAKKLAAKGVKIKPGMVIGYIVLRGDGPISNRAILAEEYDPKKHKYDAEYYIENQVLPAVLRILEGFGYRKEDLRYQKTRQVGLTSWLNIKKS
# Experiments:
# Format in all cases: biochemical
# [1] = system: human genomic DNA (about 1.3 kb) with dUTP added; test: Evaluation of uracil (dUTP) sensitivity by PCR with dUTP added to the reaction; conditions: closer to 0 = stronger sensitivity to dUTP, closer to 10 = lower sensitivity; summary of Examples 1 to 3
# Procedure: The uracil sensitivity of the modified DNA polymerase of the present invention can be evaluated by PCR. For example, a dUTP solution is added at a final concentration of 0.5 μM to 200 μM to a common PCR reaction solution containing DNA as a template, a buffer, magnesium, dNTPs, primers, and a DNA polymerase to be evaluated, and thermal cycling is performed. After the reaction, the presence or absence of PCR products is confirmed by ethidium bromide-stained agarose electrophoresis, and the uracil sensitivity can be evaluated by the concentration of accepted dUTP. With a DNA polymerase having high uracil sensitivity, the extension reaction is inhibited by the addition of a small amount of dUTP, and PCR products cannot be confirmed. With a DNA polymerase having low uracil sensitivity, gene amplification by PCR can be confirmed without problem, even if a high concentration of dUTP is added. The modified DNA polymerase with low uracil sensitivity in the present invention refers to a DNA polymerase such that when optimum thermal cycling is performed using any primers and DNA as a template in a reaction buffer optimum for the enzyme, even if a high concentration of dUTP is added, an extension reaction is not inhibited and PCR products can be confirmed, compared to wild-type DNA polymerase, which has no mutation.
# More specifically, 10× PCR buffer included in KOD-Plus-Ver. 2 (produced by Toyobo Co. Ltd.) or 10× PCR buffer included in Pfu DNA Polymerase (produced by Agilent) is used; dUTP (produced by Roche) is added to 50 μl of individual reaction solutions containing 1× PCR buffer, 1.5 mM MgSO4, dNTPs (dATP, dTTP, dCTP, and dGTP) in an amount of 0.2 mM, primers represented by SEQ ID NOs: 25 and 26 in an amount of 15 pmol for amplifying about 1.3 kb, 10 ng of human genomic DNA (produced by Roche), and 1 U of each respective enzyme, to final concentrations of 0.5, 5, 50, 100, and 200 μM. PCR is performed using a GeneAmp PCR system 9700 (Applied Biosystems) on the following schedule; preliminary reaction at 94° C. for 30 seconds, followed by 30 cycles, each cycle consisting of 98° C. for 10 seconds, 65° C. for 30 seconds, and 68° C. for 1 minute and 30 seconds. After the completion of each individual reaction, 5 μl of each of the resulting reaction solutions is subjected to agarose electrophoresis, followed by ethidium bromide staining. The uracil sensitivity can be evaluated by confirming amplified DNA fragments of about 1.3 kb under ultraviolet irradiation.
# PCR was performed by the following method to evaluate uracil sensitivity. For PCR, components included in KOD-Plus-Ver. 2 (produced by Toyobo Co. Ltd.) were used. dUTP (produced by Roche) was added to 50 μl of individual reaction solutions containing 1× PCR buffer, 1.5 mM MgSO4, dNTPs (dATP, dTTP, dCTP, dGTP) in an amount of 0.2 mM, primers represented by SEQ ID NOs: 25 and 26 in an amount of 15 pmol for amplifying about 1.3 kb, 10 ng of human genomic DNA (produced by Roche), and 1 U of each respective enzyme, to final concentrations of 0.5, 5, 50, 100, and 200 μM. PCR was performed using a GeneAmp PCR system 9700 (produced by Applied Biosystems) on the following schedule: preliminary reaction at 94° C. for 30 seconds, followed by 30 cycles, each cycle consisting of 98° C. for 10 seconds, 65° C. for 30 seconds, and 68° C. for 1 minute and 30 seconds. After the completion of each individual reaction, 5 μl of each of the resulting reaction solutions was subjected to agarose electrophoresis, followed by ethidium bromide staining. Under ultraviolet irradiation, amplified DNA fragments of about 1.3 kb were confirmed. FIGS. 3, 4, 7, and 8 show the results.
# 482 bp of human β-globin = test: PCR amplification of 482 bp of human β-globin with dUTP in place of dTTP; design: key to Results of PCR in the presence of dUTP 481 bp: A: Amplified; B: Amplified (faint band); C: Not amplified; conditions: dTTP replaced by dUTP, 35 cycles
# Procedure: 482 bp of human β-globin was amplified to compare the amplification difference between the case of using dTTP and the case of using dUTP in PCR, and the sensitivity to dUTP was examined. For amplification, each enzyme was used after being mixed with 1 μg of a KOD antibody per U of the enzyme. For PCR, components included in KOD-Plus-Ver. 2 (produced by Toyobo Co. Ltd.) were used. General dNTPs (dATP, dTTP, dCTP, dGTP) in an amount of 0.2 mM were added to 50 μl of individual reaction solutions, and dNTPs (dATP, dUTP, dCTP, dGTP) in an amount of 0.2 mM in which dTTP was replaced by dUTP were added to 50 μl of individual reaction solutions. The reaction solutions contained 1× PCR buffer, 1.5 mM MgSO4, primers represented by SEQ ID NOs: 27 and 28 in an amount of 15 pmol for amplifying […], 10 ng of human genomic DNA (produced by Roche), and 1 U of each respective enzyme mixed with the antibody. PCR was performed using a GeneAmp PCR system 9700 (produced by Applied Biosystems) on the following schedule: preliminary reaction at 94° C. for 2 minutes, followed by 35 cycles, each cycle consisting of 98° C. for 10 seconds and 68° C. for 1 minute. After the completion of each individual reaction, each of the resulting reaction solutions was analyzed using to a DNA-1000 kit for MultiNA (produced by Shimadzu Corporation) to confirm amplified DNA fragments. FIGS. 5 and 6 show the results.
# [2] = system: 1.3 kbp, 2.8 kbp, and 3.6 kbp of human β-globin; test: Amplification of long-chain DNA in PCR using dUTP; design: key to Results of PCR in the presence of dUTP 1.3 kbp / Results of PCR in the presence of dUTP 2.8 kbp / Results of PCR in the presence of dUTP 3.6 kbp: A: Amplified; B: Amplified (faint band); C: Not amplified; conditions: for Results of PCR in the presence of dUTP 1.3 kbp / Results of PCR in the presence of dUTP 2.8 kbp / Results of PCR in the presence of dUTP 3.6 kbp: dTTP replaced by dUTP, 35 cycles
# Procedure: Amplification of 1.3 kbp, 2.8 kbp, and 3.6 kbp of human β-globin in PCR using dUTP was compared. For amplification, each enzyme was used after being mixed with 1 μg of a KOD antibody per U of the enzyme. For PCR, components included in KOD-Plus-Ver. 2 (produced by Toyobo Co. Ltd.) were used. 50 μl of individual reaction solutions containing 1× PCR buffer, 1.5 mM MgSO4, dNTPs (dATP, dUTP, dCTP, dGTP) in an amount of 2 mM in which dTTP was replaced by dUTP, primers in an amount of 15 pmol (SEQ ID NOs: 25 and 26 for amplification of 1.3 kbp; SEQ ID NOs: 26 and 29 for amplification of 2.8 kbp; SEQ ID NOs: 30 and 31 for amplification of 3.6 kbp), 10 ng of human genomic DNA (produced by Roche), and 1 U of each respective enzyme mixed with the antibody were used. PCR was performed using a GeneAmp PCR system 9700 (Applied Biosystems) on the following schedule: preliminary reaction at 94° C. for 2 minutes, followed by 35 cycles, each cycle consisting of 98° C. for 10 seconds, 65° C. for 30 seconds, and 68° C. for about 1 minute per kbp (1 minute and 30 seconds for amplification of 1.3 kbp; 3 minutes for amplification of 2.8 kbp; 4 minutes for amplification of 3.6 kbp). As a control, amplification was also performed using Taq DNA polymerase. Taq DNA polymerase produced by Toyobo Co. Ltd. mixed with Anti-Taq High (produced by Toyobo Co. Ltd.) was used. 50 μl of a reaction solution containing 1× buffer included in Blend Taq, dNTPs (dATP, dUTP, dCTP, dGTP) in an amount of 2 mM in which dTTP was replaced by dUTP, primers in an amount of 10 pmol the same as the above), 10 ng of human genomic DNA (produced by Roche), and 2.5 U of the enzyme mixed with the antibody was used. PCR was performed using a GeneAmp PCR system 9700 (produced by Applied Biosystems) on the following schedule: preliminary reaction at 94° C. for 2 minutes, followed by 35 cycles, each cycle consisting of 94° C. for 30 seconds, 65° C. for 30 seconds, and 68° C. for about 1 minute per kbp (1 minute and 30 seconds for amplification of 1.3 kbp; 3 minutes for amplification of 2.8 kbp; 4 minutes for amplification of 3.6 kbp). After the completion of each individual reaction, 5 μl of each of the resulting reaction solutions was subjected to agarose electrophoresis, followed by ethidium bromide staining, and the amount of amplified DNA fragments was confirmed under ultraviolet irradiation. FIGS. 9 and 10 show the results.
# [3] = system: 0.7 kbp of human β-globin amplified in PCR with dUTP; test: Degradation with UNG of DNA amplified in the presence of dUTP; conditions: 37° C. for 10 minutes (FIG. 13)
# Procedure: It was confirmed whether 0.7 kbp of human β-globin amplified using KOD mutant with reduced uracil sensitivity (N210D/Y7A/P36H) in PCR with dUTP was degraded by being reacted with UNG. For PCR, components included in KOD-Plus-Ver. 2 (produced by Toyobo Co. Ltd.) were used. 50 μl of a reaction solution containing 1× PCR buffer, 1.5 mM MgSO4, dNTPs (dATP, dUTP, dCTP, dGTP) in an amount of 2 mM in which dTTP was replaced by dUTP, primers (SEQ ID NOs: 50 and 51) in an amount of 15 pmol, 10 ng of human genomic DNA (produced by Roche), and 1 U of the enzyme mixed with an antibody was used. PCR was performed using a GeneAmp PCR system 9700 (Applied Biosystems) on the following schedule: preliminary reaction at 94° C. for 2 minutes, followed by 35 cycles, each cycle consisting of 98° C. for 10 seconds, 60° C. for 30 seconds, and 68° C. for 1 minute. The amplification products were diluted with the above-mentioned 1× PCR buffer to 10 ng/μl, 8 μl of the diluted amplification products was mixed with 2 μl of various concentrations of UNG (produced by Roche), and the mixtures were reacted at 37° C. for 10 minutes. After the completion of each individual reaction, each of the mixtures was analyzed using a DNA-1000 kit for MultiNA (produced by Shimadzu Corporation) to confirm the amount of amplification products.
Molecule,Evaluation of dUTP resisitance on a 11-point scale [1],Results of PCR in the presence of dUTP 481 bp (482 bp of human β-globin),Results of PCR in the presence of dUTP 1.3 kbp [2],Results of PCR in the presence of dUTP 2.8 kbp [2],Results of PCR in the presence of dUTP 3.6 kbp [2],"amount of amplification of long-chain DNA with dUTP ([2]; 1.3, 2.8, 3.6 kbp, 100% dUTP (FIGS. 9 and 10))",degradation with UNG of DNA amplified with the polymerase in the presence of dUTP [3]
"KOD Y7A/P36R/V93K: modified KOD DNA polymerase with Y7A, P36R and V93K",0,C,C,C,C,,
"KOD H147E/Y7A/P36R/V93K: KOD H147E (exo(+)) mutant with Y7A, P36R and V93K",0,C,C,C,C,,
"KOD H147E/Y7A/P36H/V93K: KOD H147E (exo(+)) mutant with Y7A, P36H and V93K",0,C,C,C,C,,
"KOD Y7A/P36H/V93K: modified KOD DNA polymerase with Y7A, P36H and V93K",0,C,C,C,C,,
B1,,,,,,provided larger amounts of amplification,the DNA was degraded with UNG
